Data: patent US6465482B2, “Arylpiperazinyl-cyclohexyl indole derivatives for the treatment of depression” (Wyeth, priority 1999, dated 2002)

What was measured:
[1] = biological target: T1, serotonin transporter (Rattus norvegicus, UniProt P31652); test: serotonin transporter affinity, 3H-paroxetine binding, frontal cortical membranes; conditions: for Ki: 3H-paroxetine 0.1 nM, read-out: ST (Ki, nM,)
T1 construct: frontal cortical membranes prepared from male Sprague-Dawley rats; from tissue; host or cells: rat frontal cortex membranes
T1 sequence (P31652 whole entry): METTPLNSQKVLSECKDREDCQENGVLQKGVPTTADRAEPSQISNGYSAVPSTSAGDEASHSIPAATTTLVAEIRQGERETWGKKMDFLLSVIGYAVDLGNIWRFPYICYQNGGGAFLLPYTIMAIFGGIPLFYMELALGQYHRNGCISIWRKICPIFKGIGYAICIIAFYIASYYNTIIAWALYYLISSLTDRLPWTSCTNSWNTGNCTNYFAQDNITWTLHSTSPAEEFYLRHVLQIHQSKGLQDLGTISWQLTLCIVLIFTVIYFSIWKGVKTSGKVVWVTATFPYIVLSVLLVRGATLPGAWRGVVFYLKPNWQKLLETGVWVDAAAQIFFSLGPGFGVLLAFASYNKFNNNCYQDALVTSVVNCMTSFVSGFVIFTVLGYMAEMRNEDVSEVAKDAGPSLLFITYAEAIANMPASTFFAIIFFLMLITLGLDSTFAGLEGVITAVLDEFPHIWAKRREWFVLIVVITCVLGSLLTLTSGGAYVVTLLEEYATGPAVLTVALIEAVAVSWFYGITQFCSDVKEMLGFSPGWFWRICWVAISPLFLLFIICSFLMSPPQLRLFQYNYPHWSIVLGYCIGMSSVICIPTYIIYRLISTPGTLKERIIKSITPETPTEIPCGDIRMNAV
Description: A protocol similar to that used by Cheetham et al., Neuropharmacol. […] Briefly, frontal cortical membranes prepared from male Sprague-Dawley rats were incubated with ^3H-paroxetine (0.1 nM) for 60 minutes at 25° C. […] All reactions are terminated by the addition of ice cold Tris buffer followed by rapid filtration using a Tom Tech filtration device to separate bound from free ^3H-paroxetine.

[2] = biological target: T2, human 5-HT1A receptor subtype (Homo sapiens, UniProt P08908); test: 5-HT1A receptor binding, [3H]8-OH-DPAT, CHO cell membranes; conditions: for Ki: [3H]8-OH-DPAT 1.5 nM; for 5-HT1A, value given as %: concentration not given
T2 construct: expressed in transfected cells
T2 sequence (P08908 1-422): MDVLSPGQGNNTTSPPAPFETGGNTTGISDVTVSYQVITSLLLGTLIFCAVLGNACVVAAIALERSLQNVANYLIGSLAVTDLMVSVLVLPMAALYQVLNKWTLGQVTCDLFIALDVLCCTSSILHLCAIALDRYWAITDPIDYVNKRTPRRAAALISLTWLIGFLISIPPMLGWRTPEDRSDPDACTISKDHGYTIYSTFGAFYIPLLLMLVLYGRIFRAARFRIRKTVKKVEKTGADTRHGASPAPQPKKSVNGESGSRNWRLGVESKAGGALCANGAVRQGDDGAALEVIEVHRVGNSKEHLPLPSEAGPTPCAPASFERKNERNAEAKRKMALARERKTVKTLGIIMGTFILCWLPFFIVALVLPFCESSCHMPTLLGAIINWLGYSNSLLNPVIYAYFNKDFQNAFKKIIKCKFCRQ
Description: (§1) The PCR cloning of the human 5-HT1A receptor subtype from a human genomic library has been described previously Chanda et al., Mol. Pharmacol., 43:516 (1993). A stable Chinese hamster ovary cell line expressing the human 5-HT1A receptor subtype (5-HT1A.CH2O cells) was employed throughout this study. Cells were maintained in DMEM supplemented with 10% fetal calf serum, non-essential amino acids and penicillin/streptomycin.
Cells were grown to 95-100% confluency as a monolayer before membranes were harvested for binding studies. Cells were gently scraped from the culture plates, transferred to centrifuge tubes, and washed twice by centrifugation (2000 rpm for 10 min., 4° C.) in buffer (50 mM Tris; pH 7.5). The resulting pellets were aliquoted and placed at −80° C. On the day of assay, the cells were thawed on ice, and resuspended in buffer. Studies were conducted using [^3H]8-OH-DPAT as the radioligand. The binding assay was performed in 96 well microtiter plates in a final total volume of 250 μL of buffer. Competition experiments were performed by using 7 concentrations of unlabelled drug and a final ligand concentration of 1.5 nM. Non-specific binding was determined in the presence of 10 μM 5HT. Saturation analysis was conducted by using [^3H]8-OH-DPAT at concentaritions ranging from 0.3-30 nm Following a 30 minute incubation at room temperature, the reaction was terminated by the addition of ice cold buffer and rapid filtration using a M-96 Brandel Cell Harvester (Gaithersburg, Md.) through a GF/B filter presoaked for 30 minutes in 0.5% polyethylenenimine.

[3] = biological target: T3, human 5-HT1A receptor subtype (5-HT1A CHO cells) (Homo sapiens, UniProt P08908); test: forskolin-stimulated cAMP formation (cAMP SPA assay); assay type: cell-based; conditions: forskolin 1 uM
T3 construct: expressed in transfected cells
T3 sequence (P08908 1-422): T2 sequence (P08908 1-422)
Description: as §1
The following assays were performed by incubating the cells with DMEM containing 25 mM HEPES, 5 mM theophylline and 10 μM pargyline for a period of 20 minutes at 37° C. Functional activity was assessed by treating the cells with forskolin (1 uM final concentration) followed immediately by test compound (6 concentrations) for an additional 10 minutes at 37° C. In separate experiments, 6 concentrations of antagonist were preincubated for 20 minutes prior to the addition of 10 nM 8-OH-DPAT and forskolin. The reaction was terminated by removal of the media and addition of 0.5 ml ice cold assay buffer. Plates were stored at −20° C. prior to assessment of cAMP formation by a cAMP SPA assay (Amersham).

## Fc1ccc2[nH]cc([C@H]3CC[C@H](N4CCN(c5cccc6c5OCCO6)CC4)CC3)c2c1 [Example 24b, 3-{(1,4-trans)-4-[4-(2,3-Dihydro-benzo[1,4]dioxin-5-yl)-piperazin-1-yl]-cyclohexyl}-5-fluoro-1H-indole]
[1]
  Ki: 36 nM
[2]
  Ki: 11.3 nM

## Fc1cc2c(c(N3CCN([C@H]4CC[C@@H](c5c[nH]c6ccc(F)cc65)CC4)CC3)c1)OCCC2 [Example 31a, 5-Fluoro-3-{(1,4-cis)-4-[4-(6-fuoro-chroman-8-yl)-piperazin-1-yl]-cyclohexyl}-1H-indole]
[1]
  Ki: 13 nM
[2]
  Ki: 142 nM

## Cn1cc([C@H]2CC[C@@H](N3CCN(c4cccc5cccnc45)CC3)CC2)c2cc(F)ccc21 [Example 28, 8-{4-(1,4-cis)-4-[4-(5-Fluoro-1-methyl-1H-indol-3-yl)-cyclohexyl]-piperazin-1-yl}-quinoline]
[1]
  Ki: 2.02 nM
[2]
  Ki: 25.1 nM

## N#Cc1ccc2[nH]cc([C@H]3CC[C@@H](N4CCN(c5cccc6ccoc56)CC4)CC3)c2c1 [Example 34a]
[1]
  Ki: 1.49 nM
[2]
  Ki: 185 nM

## COc1ccccc1C1CCN([C@H]2CC[C@@H](c3c[nH]c4ccc(F)cc43)CC2)CC1 [Example 19a, 5-Fluoro-3-{(1,4-cis)-4-[4-(2-methoxy-phenyl)-piperidin-1-yl]-cyclohexyl}-1H-indole]
[1]
  Ki: 5.72 nM
[2]
  Ki: 264 nM

## COc1cc(N2CCN([C@H]3CC[C@@H](c4c[nH]c5ccc(C#N)cc54)CC3)CC2)c2ncccc2c1 [Example 44c, 3-{(1,4-cis)-4-[4-(6-Methoxy-quinolin-8-yl)-piperazin-1-yl]-cyclohexyl}-1H-indole-5-carbonitrile]
[1]
  Ki: 1.5 nM
[2]
  Ki: 21 nM

## N#Cc1ccc2[nH]cc([C@H]3CC[C@@H](N4CCN(c5cccc6cccnc56)CC4)CC3)c2c1 [Example 29a, 3-[(1,4-cis)-4-(4-Quinolin-8-yl-piperazin-1-yl)-cyclohexyl]-1H-indole-5-carbonitrile]
[1]
  Ki: 2.25 nM
[3]
  Emax: 0%

## c1cc(N2CCN([C@H]3CC[C@@H](c4c[nH]c5ncccc54)CC3)CC2)c2cc[nH]c2c1 [Example 10a, 3-{(1,4-cis)-4-[4-(1H-Indole-4-yl)-piperazin-1-yl]-cyclohexyl}-1H-pyrrolo[2,3-b]pyridine]
[3]
  Emax: 0%
[2]
  Ki: 15.8 nM

## N#Cc1ccc2[nH]cc([C@H]3CC[C@H](N4CCN(c5cc(F)cc6c5OCC6)CC4)CC3)c2c1 [Example 33b, 3-{(1,4-trans)-4-[4-(5-Fluoro-2,3-dihydro-benzofuran-7-yl)-piperazin-1-yl]-cyclohexyl}-1H-indole-5-carbonitrile]
[1]
  Ki: 45 nM
[2]
  Ki: 19.2 nM

## N#Cc1ccc2c(c1)c([C@H]1CC[C@H](N3CCN(c4cccc5[nH]ccc45)CC3)CC1)cn2Cc1ccccc1 [Example 16b, 1-Benzyl-3-{(1,4-trans)-4-[4-(1H-indol-4-yl)-piperazin-1-yl]-cyclohexyl}-1H-indole-5-carbonitrile]
[1]; 100 nM
  ST, % 100 nM: 25%
[2]; 100 nM
  5-HT1A, % @ 100 nM: 0% @

## Fc1cc2c(c(N3CCN([C@H]4CC[C@@H](c5c[nH]c6ccc(F)cc65)CC4)CC3)c1)OCC2 [Example 32a, 5-Fluoro-3-{(1,4-cis)-4-[4-(5-fluoro-2,3-dihydro-benzofuran-7-yl)-piperazin-1-yl]-cyclohexyl}-1H-indole]
[1]
  Ki: 14 nM
[2]
  Ki: 246 nM

## Cn1ccc2c(N3CCN([C@H]4CC[C@@H](c5cn(C)c6ccc(C#N)cc65)CC4)CC3)cccc21 [Example 17, 1-Methyl-3-{(1,4-cis)-4-[4-(1-methyl-1H-indol-4-yl)-piperazin-1-yl]-cyclohexyl}-1H-indole-5-carbonitrile]
[1]
  Ki: 2.5 nM
[2]
  5-HT1A, value given as %: 0%

## Fc1ccc2[nH]cc([C@H]3CC[C@@H](N4CCN(c5cccc6c5OCCO6)CC4)CC3)c2c1 [Example 24a, 3-{(1,4-cis)-4-[4-(2,3-Dihydro-benzo[1,4]dioxin-5-yl)-piperazin-1-yl]-cyclohexyl}-5-fluoro-1H-indole]
[1]
  Ki: 6.9 nM
[3]
  Emax: 81%
[2]
  Ki: 65.7 nM

## CC(C)n1cc([C@H]2CC[C@@H](N3CCN(c4cccc5[nH]ccc45)CC3)CC2)c2cc(C#N)ccc21 [Example 15a, 3-{(1,4-cis)-4-[4-(1H-indol-4-yl)-piperazin-1-yl]-cyclohexyl}-1-isopropyl-1H-indole-5-carbonitrile]
[1]
  Ki: 28 nM

## N#Cc1ccc2[nH]cc([C@H]3CC[C@H](N4CCN(c5cccc6[nH]ccc56)CC4)CC3)c2c1 [Example 7b, 3-{4-[(1,4-trans)-4-(1H-Indol-4-yl)-piperazinyl-1-yl]cyclohexyl}-1H-indole-5-carbonitrile]
[1]
  Ki: 4.19 nM
[3]
  Emax: 83%

## N#Cc1ccc2[nH]cc([C@H]3CC[C@H](N4CCN(c5cccc6ccoc56)CC4)CC3)c2c1 [Example 34b]
[1]
  Ki: 17 nM
[2]
  Ki: 8.37 nM

## Cn1cc([C@H]2CC[C@@H](N3CCN(c4cc(F)cc5c4OCC5)CC3)CC2)c2cc(C#N)ccc21 [Example 33c, 3-{(1,4-cis)-4-[4-(5-Fluoro-2,3-dihydro-benzofuran-7-yl)-piperazin-1-yl]-cyclohexyl}-1-methyl-1H-indole-5-carbonitrile]
[1]
  Ki: 7.1 nM
[2]
  Ki: 431 nM

## N#Cc1ccc2c(c1)c([C@H]1CC[C@@H](N3CCN(c4cccc5[nH]ccc45)CC3)CC1)cn2Cc1ccccc1 [Example 16a, 1-Benzyl-3-{(1,4-cis)-4-[4-(1H-indol-4-yl)-piperazin-1-yl]-cyclohexyl}-1H-indole-5-carbonitrile]
[1]
  Ki: 29 nM
[2]
  5-HT1A, value given as %: 0%

## N#Cc1ccc2[nH]cc([C@H]3CC[C@@H](N4CCN(c5cc(F)cc6c5OCC6)CC4)CC3)c2c1 [Example 33a, 3-{(1,4-cis)-4-[4-(5-Fluoro-2,3-dihydro-benzofuran-7-yl)-piperazin-1-yl]-cyclohexyl}-1H-indole-5-carbonitrile]
[1]
  Ki: 1.9 nM
[2]
  Ki: 98.9 nM

## Cn1cc([C@H]2CC[C@@H](N3CCN(c4cccc5cccnc45)CC3)CC2)c2cc(C#N)ccc21 [Example 30, 1-Methyl-3-[(1,4-cis)-4-(4-quinolin-8-yl-piperazin-1-yl)-cyclohexyl]-1H-indole-5-carbonitrile]
[1]
  Ki: 1.25 nM
[3]
  Emax: 95%
[2]
  Ki: 24.5 nM

## CC(C)n1cc([C@H]2CC[C@H](N3CCN(c4cccc5[nH]ccc45)CC3)CC2)c2cc(C#N)ccc21 [Example 15b, 3-{(1,4-trans)-4-[4-(1H-indol-4-yl)-piperazin-1-yl]-cyclohexyl}-1-isopropyl-1H-indole-5-carbonitrile]
[1]; concentration not given
  ST, value given as %: 16%

## Cn1cc([C@H]2CC[C@@H](N3CCN(c4cccc5[nH]ccc45)CC3)CC2)c2cc(F)ccc21 [Example 38, 5-Fluoro-3-{cis-4-[4-(1H-indol-4-yl)-piperazinyl]-cyclohexyl}-1-methyl-1H-indole]
[1]
  Ki: 7.22 nM
[2]
  Ki: 124 nM

## Fc1ccc2c(c1)[nH]cc2[C@H]1CC[C@@H](N2CCN(c3cccc4c3OCCO4)CC2)CC1 [Example 25a, 3-{(1,4-cis)-4-[4-(2,3-Dihydro-benzo[1,4]dioxin-5-yl)-piperazin-1-yl]-cyclohexyl}-6-fluoro-1H-indole]
[1]
  Ki: 63 nM
[3]
  Emax: 0%
[2]
  Ki: 67.7 nM

## CCn1cc([C@H]2CC[C@H](N3CCN(c4cccc5[nH]ccc45)CC3)CC2)c2cc(C#N)ccc21 [Example 13b, 1-Ethyl-3-{(1,4-trans)-4-[4-(1H-indol-4-yl)-piperazin-1-yl]-cyclohexyl}-1H-indole-5-carbonitrile]
[2]
  Ki: 827 nM
